Results on six substances are retold here after patent US7704490B2 (Institut Pasteur, priority 1998, dated 2010).

Entries after “also recorded” stand apart in the source; their conditions may differ. No end group written: not given here.

For one data set, the system named is TS1β cells. Put plainly: TS1β proliferation assay, activity of peptides and IL-2 muteins. It is filed as cell-based, murine. The note with it: for proliferation of TS1β induced by the peptide: in the absence of IL-2. The procedure:
Background of 1.4×10^3 cpm was subtracted. […] TS1β target cells are derived from TS1 murine cells (which only express murine IL-2Rγ), after transfection with the human IL-2Rβ gene.
The response to. IL-2 or peptide alone was substracted from that obtained from both IL-2 and peptide.
The biological activity of IL2 mutant Asp 20→Lys (□) is shown for comparison
TS1β cells were cultured (10^4 cells/well) in 96 wells in flat-bottomed microtiter plates with a final volume of 0.2 ml. […] In order to test the inhibitory effect of mAbs, different concentrations of these reagents were mixed in the culture wells with the respective lymphokines for 30 min at low temperature before adding the cells. […] Cultures were pulsed with 0.5 μCi/well of (3H) TdR after 36 h of incubation and harvested 15 h later.

Another data set has as its system TS1 cells. Briefly: IP130 proliferation of TS1 cells with or without human IL-2Rβ. It is filed as cell-based, murine. The note with it: with or without transfection by human IL-2Rβ gene.
The next data set relates to NK cells. Briefly: Cell cycle entry (S+G2/M) of NK cells in stimulated PBMC. It is filed as cell-based, human. Here is the method: Non-specific responses (J+1 in medium) are subtracted. NK cells entry into S+G2/M phases are measured by propidium iodide and analyzed with the ModFit 2.0 software (Becton Dickinson).
The test system of the next data set is mAb H2-8. Briefly: ELISA inhibition of mAb H2-8 binding to IL-2 coated plates. More on the design: species or system mouse. The note with it: mAb at about 50% of maximum binding, preincubated with inhibitor. The procedure:
Control is represented by non coated plates.
H2-8 was preincubated with different peptides including five decapeptides (1-10, 5-15, 10-20, 15-25, 20-30).
(In general: ELISA stands for enzyme-linked immunosorbent assay.)

Data set [1] relates to K562 or Daudi target cells. Briefly: Induction of LAK cells, 51Cr release lysis. It is filed as cell-based, human. The settings on record: for induction of LAK cells: PBMCs stimulated 3 or 6 days, lysis of K562 and Daudi targets. The procedure: K562 or Daudi target cells (5×103 in 0.1 ml) labeled with Na2^51CrO4 (Amersham Pharmacia Biotech) were mixed in round-bottomed microwells with an equal volume of effector cells at various E/T ratios. After 4 hours of incubation at 37° C., the plates were centrifuged at 2,000 g for 2 min, and cell-free supernatant were collected using a Luma Plate 96 cell harvester (Lulac-LSC). Supernatant radioactivity was assayed using an automated MicroBeta 1450 trilux γ-counter (Wallac). Spontaneous release was determined by incubating target cells in medium alone. Maximum release was determined by adding 0.1 ml of 1M HCl to the target cell suspension. The percentage of specific lysis was calculated as follows: 100×(experimental ^51Cr release−spontaneous release)/(maximum ^51Cr release−spontaneous ^51Cr release).

In another data set the test system is STAT. Briefly: Electrophoretic mobility shift assay of STAT activation in KIT225 nuclear extracts. The settings on record: STAT-3 and STAT-5; β-casein, GAS and GIRE probes. It is filed as cell-based, human. Background: Mobility shift assays separate free from complexed probe on a gel.
A further data set has as its system mAb 19B11. Put plainly: ELISA inhibition of mAb 19B11 binding to IL-2 coated plates. The settings on record: control mAb. More on the design: species or system mouse.
Data set [2] in a line: Circular dichroism, α helix content. It is filed as physicochemical. The settings on record: for α-helix content: isolated peptide, circular dichroism. On the technique in general: Circular dichroism is the unequal absorption of left and right circularly polarised light.
Data set [3] in a line: Sedimentation-diffusion equilibrium, quaternary structure. It is filed as physicochemical. The note with it: concentration above 5×10^−6M. The text has this: The quaternary structure of peptide IP130 was also studied by sedimentation-diffusion equilibrium.
The next data set deals with Kit 225 cell line. Put plainly: Protein phosphorylation and c-myc induction in Kit 225 cell line. It is filed as cell-based, human. The text has this: IP130 induces SHC protein phosphorylation. […] Kinetics of Shc phosphorylation is shown on the left. A Western blot of Shc protein is shown on the right.
Alone the peptide induces the phosphorylation of proteins on Kit 225 cell line. […] STAT-3 and STAT-5 are not activated after IP130 stimulation since IL-2Rγ is not involved in IP130 interaction with Kit 225.

The subject of data set [4] is classical murine cell lines (C30-1, CTLL, HT-2, . . . ). Put plainly: IP130 effects on classical murine IL-2 assay cell lines. It is filed as cell-based. The settings on record: cells without human IL-2Rβ. The text has this:
IP130 acts only on cell lines expressing human IL-2Rβ. […] Furthermore anti-human IL-2Rβ blocking mAb neutralizes the effects of IP130.

A further data set deals with IFN-γ production. Put plainly: IFN-γ production. It is filed as cell-based.
Another data set has as its target T1, IL-2Rβ (Homo sapiens, UniProt P14784).
T1 sequence (P14784 27-551): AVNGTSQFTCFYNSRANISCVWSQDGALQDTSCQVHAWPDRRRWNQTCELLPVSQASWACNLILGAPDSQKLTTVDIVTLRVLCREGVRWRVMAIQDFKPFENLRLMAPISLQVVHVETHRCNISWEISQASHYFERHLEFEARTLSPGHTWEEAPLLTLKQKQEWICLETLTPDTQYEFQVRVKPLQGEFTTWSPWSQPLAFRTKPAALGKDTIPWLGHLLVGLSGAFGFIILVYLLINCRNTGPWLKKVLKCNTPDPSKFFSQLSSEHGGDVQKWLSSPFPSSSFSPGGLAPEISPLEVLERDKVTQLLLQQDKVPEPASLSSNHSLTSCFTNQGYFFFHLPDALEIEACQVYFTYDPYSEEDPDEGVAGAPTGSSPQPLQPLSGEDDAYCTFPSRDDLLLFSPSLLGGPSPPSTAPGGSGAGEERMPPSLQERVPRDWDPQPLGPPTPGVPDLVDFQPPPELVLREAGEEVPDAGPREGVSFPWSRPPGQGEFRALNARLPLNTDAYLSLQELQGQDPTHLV
The settings on record: cited from earlier work.

Another data set relates to IL-2R. Put plainly: Affinity of IL-2 mutant for IL-2R. It is filed as binding. The settings on record: compared with IL-2.

For APTSSSTKKTQLQLEHLLLDLQMILNGINN [IP130], the “IC-50 of proliferation and of synergy with IL-2” value in the data set with TS1β cells (both activities at comparable concentrations) is “IC-50≅μM”. For the same substance, the “proliferation of TS1β induced by the peptide” value in the data set with TS1β cells is listed as “stimulates the proliferation”. Moreover, the “synergy with IL-2 on TS1β proliferation” value in the data set with TS1β cells (in the presence of IL-2) is reported as “strong synergy”. Moreover, in the data set with TS1 cells, the “proliferation of TS1 cells in the presence of IP130” value is listed as “TS1 cells only proliferate after transfection by the human IL-2Rβ gene”. In addition, the “entry of NK cells into the cell cycle” value in the data set on NK cells is recorded as “induces NK cells to enter into the cell cycle”. The “inhibition of the binding of mAb H2-8 to IL-2” value in the data set with mAb H2-8 is listed as “most efficient inhibitor”. Further, the “induction of LAK cells” value in data set [1] is “able to induce LAK cells in a concentration dependent manner; also recorded: potent LAK cell response”. The “LAK response compared with IL-2, day 3” value in data set [1] (day 3) is “weaker than that of IL-2”. Further, in data set [1] (day 6), the “LAK response compared with IL-2, day 6” value is listed as “comparable”. In the data set on STAT, the STAT activation entry is given as “not activated; also recorded: does not induce STAT activity”. Moreover, in the data set with mAb 19B11, the “inhibition of the binding of mAb 19B11 to IL-2” value was “inhibited”. Further, the “residues in an α helix configuration” value in data set [2] (20° C., phosphate buffer (20 mM, pH 7.2)) is given as 50%. In addition, in [2], the α-helix content was 50%±7%. For the same substance, in [3], the quaternary structure entry is recorded as “most of the molecules are in a tetrameric form”. Besides, the c-myc induction result in the data set with Kit 225 cell line is on record as “observed”. Further, the “phosphorylation of IL-2Rβ” value in the data set on Kit 225 cell line (immunoprecipitation, blotting with mAb 4G10 (anti-Ptyr)) is reported as “phosphorylated IL-2Rβ is identified”. For the same substance, the “phosphorylation of Shc” value in the data set on Kit 225 cell line (peptide alone) is “the kinase Shc is easily recognized; also recorded: phosphorylated after a ten minute stimulation”. Also, in data set [4], the “sensitivity of classical murine cell lines to the peptide” value is recorded as “insensitive”. For the same substance, the “induction of IFN-γ production” value in the data set on IFN-γ production was “ability to induce LAK cells and IFNγ production”.
Regarding “IL2 Asp 20→Lys mutant: IL-2 with substitution Asp20 by Lys [reference compound]”, the “biological activity on Ts1β cells” value in the data set with TS1β cells (5×10-3 to 10 nM, compared with IL-2 (FIG. 18)) was “clearly reduced”. The “binding to IL-2Rβ” value in the data set with IL-2Rβ is recorded as “prevents binding to IL-2Rβ”.
Turning to “IL-2 Pro125: IL-2 mutant IL-2 Pro125 (Cys→Pro) [reference compound]”, in the data set on TS1β cells (higher concentrations of mutant), the “maximum proliferation of TS1β” value is “without affecting the maximum proliferation”. Also, the “affinity for IL-2R” value in the data set on IL-2R is reported as “slightly reduces the affinity”.
As for “IP131 Asp 20→Lys: Peptide 1-31 mutated at position 20 (Asp→Lys), SEQ ID NO:8 (APTSSSTKKTQLQLEHLLLKLQMILNGINNY)”, in the data set with TS1β cells, the “proliferation of TS1β induced by the peptide” value was “maintains its inductive capacity on proliferation”. In data set [1], the “induction of LAK cells” value is reported as “capacity to generate LAK cells”. For the same substance, in the data set on IFN-γ production, the “induction of IFN-γ production” value is recorded as “induce IFN-γ production”.
As for “peptide 1-10: synthetic IL-2 decapeptide, residues 1-10 (APTSSSTKKT-NH2; UniProt P60568 21-30, looked up, fragment)”, the “inhibition of the binding of mAb 19B11 to IL-2” value in the data set on mAb 19B11 is recorded as “inhibited”.
Consider “peptide 1-22: synthetic IL-2 peptide, residues 1-22 (APTSSSTKKTQLQLEHLLLDLQ; UniProt P60568 21-42, looked up, fragment)”, for which the “inhibition of the binding of mAb 19B11 to IL-2” value in the data set on mAb 19B11 is listed as “inhibited”. For the same substance, the α-helix content in [2] is on record as 13%±5%.
